Patent US8835392B2, “Mimetic peptides and the use thereof in the form of 20S, 26S and immunoproteasome inhibitors” (Technische Universität, priority 2005, dated 2014)
Entries after “also recorded” stand apart in the source; their conditions may differ. Where a SMILES comes first, the peptide text is derived from it. The star is where a group is joined. Cbz = O=C(OCc1ccccc1)*; OtBu = CC(C)(C)O*

How the values were obtained:
[1] = tested on: Human melanoma cells (MeWo); test: Viability of human melanoma cells (MeWo), crystal violet-staining; assay type: cell-based; settings: 72 h
Description: (§1) A, Human melanoma cells (MeWo) were treated with increasing concentrations of the compounds 15 or 3 (MG132) for 72 hours. The viability of the cells after the treatment with compound 15 (-♦-) and with MG132 (-□-) was detected by a crystal-violet-staining. B and C, MeWo cells were co-cultivated with the compounds 15 and 3 (MG132) for 24 hours. The cells were subsequently fixed in 70% ethanol, and treated with RNAse A. The DNA was stained with propidium iodide (5 μg/ml), and analysed by means of FACS (FACS Calibur flow cytometer; Beckton Dickinson). The statistical significance was detected by the chi-square-test. The relative distribution of the cells that were present in the G1-(black), in the S-(white) or in the G2 phase (hatched) of the cellular cycle is shown for both compounds as examined (15 in B and MG132 in C).
Human melanoma cells (MeWo) were incubated for 72 h with different concentrations of the inhibitor 15 and 28, and the viability of the cells was determined by means of crystal violet-staining (FIG. 8).

[2] = tested on: Human melanoma cells (MeWo); test: Cell cycle arrest in MeWo cells, propidium iodide FACS; assay type: cell-based; settings: 24 hours
Description: as §1
Human melanoma cells (MeWo) were with the compounds 15 and 3 (MG132) for 24 hours co-cultivated. The cells were washed with PBS, in 70% ethanol fixed and subsequently treated with RNAse A. The DNA was stained with propidium iodide (5 μg/ml) and analysed by means of flow-cytometry (FACS Calibur flow cytometer; Beckton Dickinson). The relative dispersion of the cells that were present in different phases of the cell cycle, could thus be detected. […] The statistical significance was detected by the Chi-square test.

[3] = molecular target: T1, proteasomal activity in HeLa-cells (Homo sapiens, UniProt P20618+P28074); test: Intracellular inhibition of proteasomes in cultivated HeLa-cells; assay type: cell-based; settings: for reduction of the proteolytic activity in cells at 10 nM: HeLa cells; for membrane-permeation / stability during the incubation periods / proteasomal activity reduced to: cultivated cells; for proteasomal activity reduced to: remaining activity
T1 construct: endogenous in cells; host or cells: HeLa
Description: A, HeLa-cells were cultivated were 24 hours in the presence of the inhibitor. The protein concentration was determined in accordance with the cellular lysis according to Bradford in order to normalise the proteasomal activities to the different amounts of cells. Subsequently Complete (Roche) was added to all lysates, and the proteasomal activity was determined through the hydrolysis of Suc-LLVY-AMC. B, HeLa-cells was incubated with 1 μM of compound 15 for 2, 4, 6 and 24 hours. Cells were lysed, and proteins were separated through SDS-PAGE on a 10% gel, blotted to a PVDF-membrane. The accumulation of the poly-ubiquitinylated proteins was detected in a Western blot by an anti-ubiquitine-antibody (DAKO). C, HeLa-Cells were treated with increasing concentrations of the inhibitor 15, 25, 26, 27, and 28 for 24 hours (lane 1: without inhibitor; lane 2: 10 nM; lane 3: 100 nM and lane 4: 1 μM of the given inhibitor). Cells were lysed, proteins were separated on 15% gels, and the accumulation of the poly-ubiquitinylated proteins was controlled through Western blot.
HeLa-Cells were cultivated in RPMI, supplemented with 10% FCS and penicillin/streptomycin, at 5% CO2. Inhibitors were administered from 100×-stock solutions (in DMSO) at the final concentrations as indicated, and incubated with the cells for at least 20 hours.
Cultivated cells (HeLa) were harvested lysed and with 0.1% NP40 in TEAD in the presence of the commercially available protease-inhibitor-mixture Complete (Roche). The proteasomal activity was measured in 10 μl of the lysate using Suc-LLVY-AMC as a substrate. The protein content was quantified by means of Bradford (Protein assay; BioRad).
An application on cell cultures or animals requires that the concentrations of the inhibitors are chose as low as required. The specific proteasomal activity was reduced to a value of below 50% in cells that were treated with 1 μM of the compounds 15, 22, 25, 26, or 28, respectively (FIG. 6A).

[4] = tested on: T2, 20S proteasome; test: Inhibition of the different proteasomal activities, summary statements; assay type: biochemical; settings: for which proteasomal activities are inhibited (site selectivity): isolated proteasomes, specific substrates
T2 construct: Proteasomes were isolated from red blood cells; from tissue; host or cells: red blood cells
Description: The specific inhibition of a single catalytic site is of specific interest for the development of drugs. Thus, the inhibition of the different proteasomal activities of the proteasome was analysed (see also example 6). The different cleavage-preferences of the proteasome were determined by the specific substrate for the hydrophobic (chymotrypsin-like), the trypsine-like and the caspase-like activities of isolated proteasomes.
Suc-LLVY-AMC, Z-VGR-AMC and LLE-AMC (BACHEM, Calbiochem) was used, in order to determine the chymotrypsin-like, trypsin-like or caspase-like (post-acidic)-activities of the proteasome. Substrate was incubated with proteasome at 37° C. in assay-buffer (20 mM Tris/Cl, pH 7.2, 1 mM EDTA, 1 mM DTT) for one hour. 100 ng proteasome was pre-incubated with 0.01-10 μM of the inhibitor for […]. The reaction was started by the addition of substrate (50 μM). The AMC as released was detected using fluorescence emission at 460 nm (excitation at 390 nm) using a TECAN-fluorimeter. The activity was calculated in fluorescence-units. The inhibition is depicted by IC50-values.
The effects thereof were compared with the one of the commonly used proteasomal inhibitor 3 (MG132). The chymotrypsin-like (Suc-LLVY-AMC), the trypsin-like (Bz-VGR-AMC), and the caspase-like (Z-LLE-AMC)-activities of 20S proteasomes were determined following incubation for one hour at 37° C.

Row | SMILES | sensitivity of tumour cells [1] | IC50 ([1]; Homo sapiens, read-out: concentration at rate of survival of 50% of the cells) | concentration giving arrest of the cell cycle in the G2 phase [2] | reduction of the proteolytic activity in cells at 10 nM [3] | membrane-permeation [3] | stability during the incubation periods [3] | proteasomal activity reduced to [3] | which proteasomal activities are inhibited (site selectivity) [4] | IC50 ([4]; proteasomal activity not given, read-out: IC50-values of the most potent inhibitors)
1 | CC(C)CC(C=O)NC(=O)C(CC(=O)OC(C)(C)C)NC(=O)C(CC(C)C)NC(=O)OCc1ccccc1 (stereo not drawn) [Compound 15, Z-Leu-Asp(O^tBu)Leu-CHO] (Cbz-Leu-Asp(OtBu)-Leu-aldehyde; configuration not given here) | increased sensitivity of tumour cells | 15 nM | 50 nM | reduction of the proteolytic activity | able to penetrate cellular membranes; also recorded: membrane-permeation | sufficient stability | 10% | inhibited all of the proteasomal hydrolytic activities | < 60 nM
2 | CC(C)C[C@H](NC(=O)OCc1ccccc1)C(=O)N[C@@H](CC(C)C)C(=O)N[C@@H](CC(C)C)C(=O)C(=O)Nc1ccccc1 [Compound 28] | increased sensitivity of tumour cells | – | – | reduction of the proteolytic activity | membrane-permeation | sufficient stability | 10% | exclusive reduction of the chymotryptic activity | –
